The values below come from patent US20220241223A1, “USE OF DISULFIRAM OR ITS DERIVATIVES FOR THE TREATMENT OF MITOCHONDRIAL DISEASES OR DYSFUNCTION” (Universite D'angers, priority 2019, published 2022).

One data set has as its system Δcoa6 cells. In words: Growth in liquid non-fermentable medium with increasing DSF concentrations. In kind it is cell-based. The following applies: Saccharomyces cerevisiae, 40 h, read-out: toxic dose (IC50). As to the method:
Exponentially growing cells were inoculated in fresh non-fermentable YPG or YPE media supplemented, or not, with increasing DSF concentrations.
More precisely, the shy1-G137R and Δcoa6 cells have been grown for 40 h in liquid medium containing 2% glycerol and 0.1% galactose as carbon source and increasing concentrations of DSF (100 nM to 6 μM). The A29G and fmc1Δ cells have been grown for 48 h in liquid medium containing 2% glycerol as carbon source and increasing concentrations of DSF (50 nM to 5 μM). The taz1Δ and sym1Δ cells have been grown for 48 h in rich liquid medium containing 2% ethanol/0.2% galactose and 2% glycerol/2% ethanol as a carbon source, respectively, and increasing concentrations of DSF (100 nM to 9 μM).

In data set [1] the test system is all the tested mutant strains. Description: Halo test of growth on respiratory medium, all strains together (FIG. 1A). In kind it is cell-based, Saccharomyces cerevisiae. The following applies: at different extents. As to the method: A/ Effect of DSF on growth of various mutant yeast strains on a respiratory medium as detected by halo tests.
Each of the various Saccharomyces cerevisiae yeast strains used in examples 1 to 3 contain different specific mutations modeling human mutations resulting in mitochondrial diseases. At different extents, all these yeast strains present growth defect when grown on respiratory medium such as ethanol or glycerol at 28° C. or 36° C. (depending on the strain). […]
More precisely, 200 μL of the various yeast mutant strain grown in liquid YPD rich fermentable medium (1% Yeast Extract, 0.5% Bacto Peptone, 2% Glucose) at 0.4 OD600 were spread on agar-based solid respiratory medium: either YPG (1% Yeast Extract, 0.5% Bacto Peptone, 2% glycerol) or YPE (1% Yeast Extract, 0.5% Bacto Peptone, 2% ethanol). Small sterile filters were then placed on the agar surface and increasing concentrations of DSF were added to the filters at the indicated quantities. […]

The test system of data set [2] is A29G, shy1 and coa6 yeast mutant strains. In words: Yeast respiration, O2 consumption rate (Hansatech electrode). Type of data set: cell-based, Saccharomyces cerevisiae. The following applies: FIG. 2; 200 nM for A29G, 300 nM for shy1 and coa6 mutants; with or without CCCP. The text has this:
FIG. 2: Effect of DSF on O2 consumption rate (VO2, nmol O2 10^7 cell/min) of various yeast mutant strains, with or without CCCP. The data are the means±SEM of at least three independent experiments. The significance of variations among samples and controls was estimated using Anova multifactorial test: Tukey; (* P value<0.05; ** P<0.01; *** P<0.001; **** P<0.0001)).
The respiratory intensity corresponds to the amount of oxygen consumed relative to time and to the quantity of cells. It reflects the oxidative metabolism of cells. Oxygen consumption was measured using a Hansatech electrode. Cells were grown for 7-8 generations at 28° C. for 24 or 48 h in YPE medium (1% Yeast Extract, 0.5% Bacto Peptone, 2% ethanol) or galactose medium (1% Yeast Extract, 0.5% Bacto Peptone, 2% galactose) supplemented with either DMSO or DSF (200 nM for A29G; 300 nM for shy1 and coati mutants). […] 02 consumption was recorded with or without CCCP (Carbonyl Cyanide m-Chloro-Phenyl hydrazine; an uncoupling agent that dissipates the proton gradient that is established during the normal activity of the respiratory chain. In the presence of CCCP, the maintenance of an electrical potential across the inner mitochondrial membrane is impossible and respiration becomes maximal. The 02 consumption rate was calculated based on the linear part of 02 consumption.

The conditions of data set [3]: in e.g. alcohol or chloroform; cited from earlier work.

As usually defined, the IC50 is the concentration needed to halve the response being measured. On to `CCN(CC)C(=S)SSC(=S)N(CC)CC` [DSF, 1-(diethylthiocarbamoyldisulfanyl)-N,N-diethyl-methanethioamide], for which the IC50 in the data set with Δcoa6 cells is 3.1 µM. Besides, the “effect on growth defect on non-fermentable (respiratory) medium” value in data set [1] is reported as “suppresses the growth defect”. The “effect on yeast respiration (O2 consumption rate)” value in data set [2] is on record as “increases the yeast respiration”. For the same compound, the solubility entry in data set [3] is “high solubility”.
